Measured values taken from US7645595B2, “Method of production of artificial skin” (Shiseido Company, Ltd., priority 2000, dated 2010).

Experiments:
[1] = tested on: artificial skin (skin model: contracted collagen gel with human dermal fibroblasts plus epidermal keratinocytes); assay: Artificial skin culture with matrix metalloproteinase inhibitor: basement membrane formation seen in cross-section (Example 1, FIG. 1); assay type: cell-based; details: cultured 2 weeks, versus control without inhibitor
Description: Collagen gel was obtained by preparing 10 ml of a collagen solution of suspended fibroblasts (0.3 to 1×10^5 cells/ml) originating in human dermis (product I-AC of Koken Co., Ltd. was used for the collagen) on ice followed by gelling the collagen at 37° C. in a 60 mm Petri dish. Next, the gel was peeled from the walls of the Petri dish and the collagen gel was contracted in a CO2 incubator.
This contracted collagen gel equivalent to dermis was placed on a metal mesh and a glass ring (inner diameter: 12 mm) was placed over this gel. 0.4 ml of a suspension of epidermal keratinocytes (1×10^6/ml) (mixed medium of KGM-DMEM containing 5% fetal calf serum (1:1)) were placed inside the glass ring to prevent leakage of liquid. After adhering keratinocytes in a CO2 incubator overnight, the ring was removed on the following day.
After inoculating the epidermic cells, the medium was changed to that containing either (1) 10 μM CGS27023A (matrix metalloproteinase inhibitor) or (2) 300 μM MMP-inhibitor (p-NH2-Bz-Gly-Pro-D-Leu-D-Ala-NHOH (FN-437) (BBRC, 1994, 199, p. 1442-1446) (acquired from Cabbiochem. Novabiochem Corporation) (matrix metalloproteinase inhibitor)) starting in the first week, and then replaced with medium containing the same type and same concentration of matrix metalloproteinase inhibitor every 2-3 days after that and cultured for 2 weeks. […]

[2] = tested on: Skin Model (artificial skin); basement membrane components laminin 5, type IV collagen, type VII collagen; assay: Artificial skin culture with MMP inhibitor and matrix protein production promoting agent: H&E staining and immunostaining for LN5, IVC, VIIC (Example 2, Table 1, FIG. 2-4); assay type: cell-based, human; details: CGS27023A 10 μM, TGFa/TGFb1 10 ng/ml, versus control
Description: Although the same method as Example 1 was repeated, the following substances were used as test substances. • (1) 10 μM matrix metalloproteinase inhibitor CGS27023A only; • (2) 10 μM matrix metalloproteinase inhibitor CGS27023A and 10 ng/ml of matrix […] protein production promoting agent, Transforming Growth Factor α (TGFa); • (3) 10 μM matrix metalloproteinase inhibitor CGS27023A and 10 ng/ml of matrix protein production promoting agent, Transforming Growth Factor β1 (TGFb1); • (4) 10 μM matrix metalloproteinase inhibitor CGS27023A, 10 ng/ml of matrix protein production promoting agent, Transforming Growth Factor α (TGFa) and 10 ng/ml of Transforming Growth Factor β1 (TGFb1); and • (5) culturing of a control to which none of the above were added. The formed artificial skin was stained by hematoxylin-eosin (H & E) and immunostaining (using anti-laminin 5 (LN5) antibody, anti-type IV collagen (IVC) antibody, and anti-type VII collagen (VIIC) antibody). Culturing was carried out in the same manner as above using the following plant extracts instead of the above matrix metalloproteinase inhibitor CGS27023A.

Molecule | Promotion of basement membrane formation (FIG. 1) ([1]; 300 μM in medium) | Adhesion between epidermis and dermis [2] | Promotion of basement membrane formation (FIG. 1) ([1]; 10 μM in medium)
p-NH2-Bz-Gly-Pro-D-Leu-Ala-NHOH [MMP-inhibitor] | promotion of basement membrane formation was clearly observed | – | –
COc1ccc(S(=O)(=O)N(Cc2cccnc2)[C@@H](C(=O)NO)C(C)C)cc1.Cl [CGS27023A, N-hydroxy-2(R)-[[(4-methoxyphenyl)sulfonyl](3-picolyl)amino]-3-methylbutanamide hydrochloride] | – | adhesion between the epidermis and dermis was clear | promotion of basement membrane formation was clearly observed
